Reference: patent US9427433B2, “Methods and compositions for enhancing fertility and/or inhibiting pregnancy failure and restoring glucose tolerance” (Queen's University at Kingston, priority 2011, dated 2016)

What was measured:
Format in all cases: in vivo, mouse
[1] = tested on: uterine cytokines (IFN-γ, TNFα, IL16, IL12 family and others); experiment: Cytokine multiplex profiling in uteri at peri-implantation
From the text: In all untreated or vehicle-treated diabetic mice, an aberrant over-expression of IFN-γ, TNFα and IL16 accounted for the immune-cytotoxicity related implantation failure in these mice.

[2] = tested on: 60% high fat fed NZO and DIO mice; experiment: Glucose tolerance test after tacrolimus; settings: all treated type 2 diabetic and obese mice; FIG. 16B
Description: Twenty NZO and DIO/B6 female mice were maintained on a high fat diet consisted of 60% kcal fat, 20% kcal protein and 20% kcal carbohydrate, with a total energy mass of 5.24 kcal/gm (D12492, Research Diets Inc.; […] Tacrolimus (Prograf (5 mg/ml), Astellas) was administered subcutaneously in a dose of 0.1 mg/kg q2d in 0.2 ml saline for three weeks to the obese and glucose intolerant NZO and DIO mice starting at the age of 10 weeks after which animals were mated to males of the same strain and pregnancy was dated from the morning of the positive detection of vaginal (copulation) plug. See FIG. 2. […] Briefly, basal glucose levels were measured for conscious mice individually caged in 1000 cc plastic mouse caging using a one-touch ultra glucose strips and meter (Acqui-check Aviva, Roche, Montreal, Canada) and approximately 30 microliters of blood obtained via tail venipuncture prior to fasting for six hours in cages equipped with hardwood bedding. Fasting blood glucose was recorded at the end of the six hours fasting period. […] Then after, blood glucose was recorded at 15, 30, 45, 60, 90 and 120 minutes respectively. For Si experiments blood glucose was determined only at 15 minutes. Glucose tolerance graphs were generated by blotting mean±standard error of the mean (SEM) of the recorded glucose data per mouse per minute collection time. […]

[3] = tested on: diabetic and obese mice fed with 60% fat; experiment: Serum lipid profile; settings: 60% fat for 12 weeks; day 4.5 post-coitum
From the text: FIGS. 22A to 22H show results of tacrolimus restoring normal lipid profile in all treated diabetic and obese mice fed with 60% fat for 12 weeks. Normal serum levels of Triglycerides (FIG. 22A and FIG. 22B), Total Cholesterol (FIG. 22C and FIG. 22D), High-density Lipoprotein (HDL) Cholesterol (FIG. 22E and FIG. 22F) and lipid Ratio representing the overall lipid profile (FIG. 22G and FIG. 22H) were obtained after the administration of tacrolimus to the diabetic and obese mice despite their continued high fat calorie intake. Blood samples were taken at day 4.5 post-coitum and values on the Y-axis are plotted as power of 10.

[4] = Likely blood concentration from the dose regimen described herein (extrapolated); settings: four-fold lower than the rat value
Description: The smallest currently available tacrolimus dose is a 0.5 mg capsule and a single oral dose of 0.5 mg tacrolimus results in a maximal blood concentration in humans of 4.6 ng/ml (Mathew et al. Clinical Therapeutics. 2011 33(9):1105-1119). This represents over a seven-fold difference based upon the efficacious blood concentration of tacrolimus in experiments disclosed herein. A dose of 0.1 mg/kg in rats represents does of 0.2 mg/kg in mice, based upon a rat Km=6. This is a four-fold higher dose (0.2 mg/kg) than used in experiments disclosed herein. Therefore, the likely blood concentration from the dose regimen described herein would be four-fold lower (i.e. 0.15 ng/ml blood concentration) and represents an even greater exposure difference (28-fold to 38-fold) compared to existing tacrolimus dose forms for humans. Thus, experiments disclosed herein indicate that a substantially lower dose of macrolide agent such as tacrolimus than routinely administered to date may be useful in the methods of the present invention. By “substantially lower dose” or “low dose therapy” for purposes of the present invention, it is meant a dose of macrolide agent at least 2-fold lower, more preferably at least 4-fold lower, more preferably at least 10-fold lower, than the recommended starting doses of tacrolimus (Prograf) when administered for kidney and liver transplant or heart transplant.

## C=CC[C@@H]1/C=C(\C)C[C@H](C)C[C@H](OC)[C@H]2O[C@@](O)(C(=O)C(=O)N3CCCC[C@H]3C(=O)O[C@H](/C(C)=C/[C@@H]3CC[C@@H](O)[C@H](OC)C3)[C@H](C)[C@@H](O)CC1=O)[C@H](C)C[C@@H]2OC [tacrolimus]
[1]; diabetes prone mice, FIG. 12
  anti-inflammatory cytokines IL-1ra, IL10 and IL2 in uteri: inhibition of some anti-inflammatory cytokines such as IL-1ra, IL10 and IL2
[1]; peri-implantation, FIG. 8
  cytokines involved in inflammation, T-cell cytotoxicity and blood coagulation: pan-inhibition of cytokines involved in inflammation, T-cell cytotoxicity and blood coagulation
[1]; peri-implantation, FIG. 9
  uterine expression of MCP1, MCP5, MIG9, RANTES, SDF-1, KC: significantly downregulated the uterine expression of six major IFN-γ-regulated inflammatory cytokines
[1]; short-term administration prior to mating, peri-implantation
  Th1-induced cytokines (IFN-γ, IL16, TNFα, IL12 family) in uteri: significant inhibition of the vast majority of Th1-induced cytokines
[1]; time of implantation, FIG. 7F
  IL12 family cytokines in uteri: downregulating members of IL12 family cytokines
[1]; time of implantation, FIG. 11
  IL5, IL7 and IL13 expression in uteri: restored normalized levels of IL5, IL7 and IL13 expression
[2]
  glucose tolerance: restored normal glucose tolerance
[3]
  lipid profile (triglycerides, total cholesterol, HDL cholesterol, lipid ratio): restored normal lipid profile
[4]
  likely blood concentration: 0.15 ng/mL
